Literature values, collected in article PMC7287799 (Molecules, 2020).

Test system: E. coli IMPDH

Which Ki does the source give for `NC(=O)c1ncn([C@@H]2O[C@H](CO)[C@@H](O)[C@H]2O)c1O` [Mizoribine] here?
Its Ki is 500 nM.
